Assay results: US4537895A, “Isoquinoline derivatives” (EGYT Gyogyszervegyeszeti Gyar, priority 1982, dated 1985)

What was measured:
[1] = test system: decrease of the rectal temperature caused by reserpine; experiment: Test 6: reserpine-induced decrease of rectal temperature; assay type: in vivo
Procedure: 6. The lowest s.c. dose which still hinders the decrease of the rectal temperature caused by the administration of a 1,6 umole/kg dose of reserpine.
(§1) The acute toxicity data are determined in mice. Tests 2-6 are also carried out in mice. The doses are expressed in micromole/kg. The therapeutical index (TI) is the LD/ED quotient.
(§2) Tests 2, 8, 9 and 10 are suitable for the evaluation of the dopaminerg stimulating effect of the test compounds (potential anti-parkinson agent). Tests 4, 5, 6 and 7 give information about the catecholamine-uptake inhibiting effect (potential antidepressive activity).

spontaneous motility = experiment: Test 3: spontaneous motility; assay type: in vivo
Procedure: 3. Lowest i.p. dose which still increases or decreases the spontaneous motility of the mice.
as §1
In Test 3 "+=motility increase" and "-=motility decrease."

[2] = test system: blood pressure and nictitating membrane; experiment: Test 7: blood pressure and nictitating membrane effect; assay type: in vivo; conditions: Felis catus, iv, cats; ">" = inactive in the given dose; read-out: Lowest i.v. dose which still increases the blood pressure and nictitating membrane effect (Test 7)
Procedure: (§3) Tests 7-10 are carried out in cats and rats, the doses are expressed in micromole/kg.
as §2

[3] = Acute toxicity, s.c., LD50; design: species or system mice; conditions: mouse, in vivo
Procedure: as §1

[4] = test system: catalepsy induced by Haloperidol; experiment: Test 2: inhibition of haloperidol-induced catalepsy; assay type: in vivo
Procedure: (§4) 2. S.c. dose which inhibits the catalepsy induced by a 13 umole/kg dose of Haloperidol, in 50% of the mice.
as §1, §2

[5] = test system: catalepsy induced by tetrabenazine; experiment: Test 4: inhibition of tetrabenazine-induced catalepsy; assay type: in vivo
Procedure: (§5) 4. S.c. dose which inhibits the catalepsy induced by a 110 umole/kg dose of tetrabenazine, in 50% of the mice.
as §1, §2

[6] = test system: catalepsy induced by Haloperidol / tetrabenazine; experiment: Comparison of anti-haloperidol (Test 2) and anti-tetrabenazine (Test 4) activity; assay type: in vivo, mice
Procedure: as §4, §5, §1
On comparing the dopaminerg type anti-haloperidol test and the anti-tetrabenazine activity being characteristic of the antidepressive effect the following can be stated:
The quotient of the ED values of Columns 2 and 4 is the highest for Compound I (55:13=4.2). […] The said quotient is high in the case of Nomifensine (1.6), Compound D (1.8), Compound E (2.7) and Compound F (1.7).

stereotypy = experiment: Test 8: induction of stereotypy; assay type: in vivo; conditions: Rattus norvegicus, sc, rats; ">" = inactive in the given dose; read-out: Lowest s.c. dose which still induces stereotypy (Test 8)
Procedure: 8. The lowest s.c. dose which still induces stereotypy, in rats.
as §3, §2

[7] = Overall comparison with Nomifensine in the pharmacological tests; assay type: in vivo
Procedure: The pharmacological activity of the compounds of the present invention is determined by the following tests:
as §1, §3

prolactine level = experiment: Test 10: decrease of prolactine level in ovariectomised rats; assay type: in vivo; conditions: Rattus norvegicus, 96 h, after 4 days treatment with oestradiol 0.073 umole/kg, read-out: Dose which induces a significant decrease of the prolactine level (Test 10)
Procedure: 10. The dose which induces a significant decrease of the prolactine level after 4 days treatment with a dose of 0.073 umole/kg of oeastradiol, on three weeks earlier ovariectomised rats.
as §3, §2

[8] = test system: ptosis induced by tetrabenazine; experiment: Test 5: inhibition of tetrabenazine-induced ptosis; assay type: in vivo
Procedure: 5. S.c. dose which inhibits the ptosis induced by a dose of 79 umole/kg of tetrabenazine, in 50% of the mice.
as §1, §2

With `CCOC(=O)Nc1cccc2c1CN(C)CC2c1ccc(Cl)cc1` (stereo not shown) [Compound I, 8-ethoxycarbonylamino-4-p-chloro-phenyl-2-methyl-1,2,3,4-tetrahydroisoquinoline] the “TI (Test 6), LD/ED quotient” value ([1]; LD50 / ED of Test 6) was 84, the minimal effective dose ([1]; Mus musculus, sc, read-out: ED, lowest s.c. dose which still hinders the decrease of the rectal temperature caused by reserpine (Test 6)) was 26 µmol/kg and the “TI (Test 3), LD/ED quotient” value (spontaneous motility; LD50 / ED of Test 3) was 275. The minimal effective dose (spontaneous motility; Mus musculus, ip, read-out: ED, lowest i.p. dose which still decreases the spontaneous motility (Test 3, -)) was 7.9 µmol/kg, the minimal effective dose [2] was 1.3 µmol/kg and the “Toxicity compared with Nomifensine (in words)” value [3] was “toxicity is much lower”. For the same molecule, the LD50 at 96 h ([3]; sc, mice, 96 hour observation) was 2180 µmol/kg, the “TI (Test 2), LD/ED quotient” value ([4]; LD50 / ED of Test 2) was 40 and the ED50 ([4]; Mus musculus, sc, read-out: ED, s.c. dose which inhibits the catalepsy induced by Haloperidol in 50% of the mice (Test 2)) was 55 µmol/kg. The “TI (Test 4), LD/ED quotient” value ([5]; LD50 / ED of Test 4) was 167, the ED50 ([5]; Mus musculus, sc, read-out: ED, s.c. dose which inhibits the catalepsy induced by tetrabenazine in 50% of the mice (Test 4)) was 13 µmol/kg and the “Quotient of the ED values of Columns 2 and 4” value ([6]; ED Test 2 (haloperidol) : ED Test 4 (tetrabenazine)) was 4,2. For the same molecule, the “Antidepressant versus antiparkinson profile (in words)” value ([6]; from quotient ED2:ED4) was “relatively a stronger antidepressant than an antiparkinsone agent”, the minimal effective dose (stereotypy) was 21 µmol/kg and the “Activity compared with Nomifensine (in words)” value ([7]; all tests) was “activity is higher than that of Nomifensine”. For the same molecule, the “Therapeutical index relative to that of Nomifensine” value ([7]; various tests) was 2-6,8 times higher, the minimal effective dose (prolactine level) was 26 µmol/kg and the “TI (Test 5), LD/ED quotient” value ([8]; LD50 / ED of Test 5) was 1360. It also gave an ED50 ([8]; Mus musculus, sc, read-out: ED, s.c. dose which inhibits the ptosis induced by tetrabenazine in 50% of the mice (Test 5)) of 1.6 µmol/kg.
